The term Tmax denotes the time from dosing to the highest level. For orientation: half-life means the time needed for the level to fall by half in the phase considered. As a reminder, the AUC(0-t) is exposure summed from dosing to a finite time, without extrapolation to infinity. In general, Cmax refers to the peak of the concentration-time curve. Usually AUC(0-inf) stands for the area under the concentration-time curve extrapolated to infinity.

Series [1] can be described thus: Safety evaluation in the drug-drug interaction study (adverse events, laboratory, vital signs). In kind it is in vivo, human. As to conditions: rosiglitazone 8 mg with ethyl eicosapentaenoate 4 g/day, healthy subjects. The source says: Safety evaluations consisted of monitoring adverse events (AEs), clinical laboratory measurements (chemistry, hematology, and urinalysis), vital signs (systolic and diastolic blood pressure, heart rate, respiratory rate and oral body temperature), and physical examination findings.

For series [2] the following is noted: independent of dose; cited from earlier work.
Series [3] is described as follows: Phase 1 open-label crossover drug-drug interaction study: rosiglitazone plasma pharmacokinetics without and with ethyl eicosapentaenoate.
Experimental: Eligibility assessments and clinical laboratory testing were performed within a 28-day screening period. All eligible subjects received the same treatment. […] On days 12-29, subjects received oral doses of 4 g icosapent ethyl (2 liquid-filled 1 g gelatin capsules) twice daily, with or following the morning and evening meals. All study drugs were taken with 240 mL water. Rosiglitazone was administered by study personnel at the research unit, and thus compliance calculations were not necessary. icosapent ethyl was either administered by study personnel during scheduled visits or self-administered by subjects while away from the study site. Compliance to icosapent ethyl (days 12-29) was evaluated by counting and reconciling unused capsules against subject diaries and was calculated as: (used capsules/total dosing days×4)×100.
Doses selected for study were based on established PK profiles of both agents.
Eligible subjects were healthy nonsmoking men and women between the ages of 19 and 55 years with a body mass index >18 and ≤35 kg/m^2 and in good health as determined by medical history and medical examination. Women who were pregnant, nursing, or planning a pregnancy were excluded; female subjects of childbearing potential were required to use an acceptable method of birth control. Subjects were prohibited from ingesting medications and supplements that contained EPA and/or docosahexaenoic acid (DHA), fish meals, foods fortified with EPA and/or DHA, lipid-medications and dietary supplements with known or potential lipid-altering effects including statins, niacin >200 mg/day, fibrates, ezetimibe, and bile acid sequestrants or medications or supplements that may influence the measurements of EPA concentrations in plasma until after the last PK sample collection.
In series [4] the target is T1, CYP2C8 (Homo sapiens, UniProt P10632).
T1 construct: from tissue; host or cells: living healthy human subjects (in vivo; endogenous enzyme)
T1 sequence (P10632 1-490): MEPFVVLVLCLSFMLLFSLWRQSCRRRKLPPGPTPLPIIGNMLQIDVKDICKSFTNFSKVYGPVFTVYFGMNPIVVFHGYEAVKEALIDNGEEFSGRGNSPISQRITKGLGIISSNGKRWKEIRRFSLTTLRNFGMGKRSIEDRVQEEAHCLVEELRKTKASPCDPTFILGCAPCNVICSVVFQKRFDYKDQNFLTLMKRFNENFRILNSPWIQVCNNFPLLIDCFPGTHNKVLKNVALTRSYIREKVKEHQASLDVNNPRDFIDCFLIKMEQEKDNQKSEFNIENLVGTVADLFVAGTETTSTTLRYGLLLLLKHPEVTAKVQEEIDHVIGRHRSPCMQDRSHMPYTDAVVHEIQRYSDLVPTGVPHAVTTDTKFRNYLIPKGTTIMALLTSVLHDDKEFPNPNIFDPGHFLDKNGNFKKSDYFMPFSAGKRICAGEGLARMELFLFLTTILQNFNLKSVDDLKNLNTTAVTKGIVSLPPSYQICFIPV
Put plainly: Effect of ethyl eicosapentaenoate on metabolism/exposure of rosiglitazone (CYP2C8 substrate) in the drug-drug interaction study. Conditions: at steady state, 4 g/day, healthy subjects. In kind it is in vivo. An excerpt: Nonparametric statistics included median and data range (minimum-maximum).

Where [5] appears, read: both, human, plasma, oral, 8 mg.

Consider `CN(CCOc1ccc(CC2SC(=O)NC2=O)cc1)c1ccccn1` (centres unmarked) [Rosiglitazone, rosiglitazone], for which the “safety and tolerability of concomitant administration” value in series [1] is “safe and well-tolerated”. For the same compound, the serious adverse events result in series [1] was “No serious adverse events”. Further, the elimination half-life in series [2] was 3 to 4 h. Also, the time of peak concentration (Tmax) in series [3] (both, human, plasma, oral) was found to be 0.8 h; in series [3] (setting [5]), 0.8 h. Also, the half-life in series [3] (both, human, plasma, oral) is 4.1 h; in series [3] (setting [5]) it was 4.4 h. In series [3] (setting [5]), this compound registered an AUC(0-t) of 3150 ng·h/mL. Further, the Cmax in series [3] (both, human, plasma, oral, 8 mg, Cmax, rosiglitazone 8 mg alone, mean (SD)) is 672 ng/mL; in series [3] (both, human, plasma, oral, 8 mg, LSGM Cmax, rosiglitazone alone, least squares geometric mean from mixed models) it was 647 ng/mL; in series [3] (both, human, plasma, oral, Cmax, rosiglitazone 8 mg with EPA 4 g, mean (SD)) it was 673 ng/mL; in series [3] (both, human, plasma, oral, LSGM Cmax, rosiglitazone + EPA, least squares geometric mean from mixed models), 650 ng/mL. The AUC(0-inf) in series [3] (both, human, plasma, oral, 8 mg, LSGM AUC0-inf, rosiglitazone alone, least squares geometric mean from mixed models) was found to be 3150 ng·h/mL; in series [3] (both, human, plasma, oral, AUC0-inf, rosiglitazone 8 mg with EPA 4 g (day 29), healthy subjects, plasma, mean (SD)), 2920 ng·h/mL; in series [3] (both, human, plasma, oral, LSGM AUC0-inf, rosiglitazone + EPA, least squares geometric mean from mixed models), 2840 ng·h/mL; in series [3] (both, human, plasma, po, 8 mg, AUC0-inf, rosiglitazone 8 mg single oral dose alone (day 11), healthy subjects, plasma, mean (SD)), 3230 ng·h/mL. In addition, the Kel in series [3] (rosiglitazone 8 mg alone, mean (SD)) is recorded as 0.16 (0.02) 1/h; in series [3] (rosiglitazone 8 mg with EPA 4 g, mean (SD)), 0.17 (0.03) 1/h. Also, in series [3] (rosiglitazone 8 mg, ethyl eicosapentaenoate 4 g/day), the “difference in AUC0-inf and Cmax, alone compared to co-administration with ethyl eicosapentaenoate” value is “no significant difference”.
In the case of `CC/C=C\C/C=C\C/C=C\C/C=C\C/C=C\CCCC(=O)OCC` [ethyl eicosapentaenoate, all-cis eicosa-5,8,11,14,17-pentaenoic acid ethyl ester], in series [4], the “exposure changes of rosiglitazone when administered concomitantly” value is recorded as “no clinically relevant exposure changes” and the “inhibition of the metabolism of rosiglitazone” value is on record as “does not inhibit”. Also, in series [1], the “safety and tolerability of concomitant administration” value is “safe and well-tolerated”; the serious adverse events entry was “No serious adverse events”.
